Assay results as given in ChEMBL document CHEMBL4406896, “Pyrenocine A induces monopolar spindle formation and suppresses proliferation of cancer cells” (Bioorg Med Chem, 2019).
Activity calls are given as the source filed them. No cut-off for these calls is given here.

Assays:
HeLa [1] = experiment: Antiproliferative activity against human HeLa cells incubated for 48 hrs by WST8 assay; type: functional, cell-based
HeLa [2] = experiment: Induction of cell cycle arrest in S phase synchronized human HeLa cells stably expressing GFP-HistoneH1 fusion protein assessed as increase in formation of ring shaped chromosomes incubated for 4 hrs by inverted fluorescence microscopic method; type: functional, cell-based
Huh-7 = experiment: Antiproliferative activity against human HuH7 cells incubated for 48 hrs by WST8 assay; type: functional, cell-based; details: Huh-7, 48 h
A549 = experiment: Antiproliferative activity against human A549 cells incubated for 48 hrs by WST8 assay; type: functional, cell-based; details: A549, 48 h
HCT-116 = experiment: Antiproliferative activity against human HCT116 cells incubated for 48 hrs by WST8 assay; type: functional, cell-based; details: HCT-116, 48 h
HeLa [3] = experiment: Induction of cell cycle arrest in human HeLa cells assessed as mono-polar spindles formation surrounded by ring shaped chromosomes in mitotic cells at 3 uM incubated for 6 hrs by Hoechst 33342 staining based confocal microscopic method; type: functional
HeLa [4] = experiment: Cytotoxicity against human HeLa cells assessed as cell death at 5 to […] incubated for 48 hrs by LDH assay relative to control; type: cell-based
HeLa [5] = experiment: Induction of cell cycle arrest in S phase synchronized human HeLa cells stably expressing GFP-HistoneH1 fusion protein assessed as chromosomes alignment at 5 uM incubated for 3 hrs by inverted fluorescence microscopic method; type: functional, cell-based
HeLa [6] = experiment: Induction of cell cycle arrest in S phase synchronized human HeLa cells stably expressing GFP-HistoneH1 fusion protein assessed as chromosomes division at 5 uM incubated for 3 hrs by inverted fluorescence microscopic method; type: functional, cell-based
HeLa [7] = experiment: Induction of cell cycle arrest in S phase synchronized human HeLa cells stably expressing GFP-HistoneH1 fusion protein assessed as formation of ring shaped chromosomes at 5 uM incubated for 4 hrs by inverted fluorescence microscopic method; type: functional, cell-based
HeLa [8] = experiment: Induction of cell cycle arrest in S phase synchronized human HeLa cells stably expressing GFP-HistoneH1 fusion protein assessed as increase in total mitotic cells at 1 uM incubated for 6 hrs by inverted fluorescence microscopic method relative to control; type: functional
HeLa [9] = experiment: Induction of cell cycle arrest in S phase synchronized human HeLa cells stably expressing GFP-HistoneH1 fusion protein assessed as increase in total mitotic cells at 5 uM incubated for 6 hrs by inverted fluorescence microscopic method relative to control; type: functional
HeLa [10] = experiment: Induction of cell cycle arrest in S phase synchronized human HeLa cells stably expressing GFP-HistoneH1 fusion protein assessed as increase in total mitotic cells at 10 uM incubated for 6 hrs by inverted fluorescence microscopic method relative to control; type: functional
HeLa [11] = experiment: Induction of cell cycle arrest in human HeLa cells assessed as mono-polar spindles formation surrounded by ring shaped chromosomes in mitotic cells at 5 uM incubated for 6 hrs by Hoechst 33342 staining based confocal microscopic method; type: functional
[12] = biological target: T1, Kinesin-like protein KIF11 (Homo sapiens) (UniProt P52732); experiment: Inhibition of human Eg5 motor domain (1 to 368 residues) expressed in Escherichia coli assessed as reduction in microtubule-stimulated ATPase activity at 100 uM incubated with ATP for 6 mins by malachite green method
T1 sequence (whole entry): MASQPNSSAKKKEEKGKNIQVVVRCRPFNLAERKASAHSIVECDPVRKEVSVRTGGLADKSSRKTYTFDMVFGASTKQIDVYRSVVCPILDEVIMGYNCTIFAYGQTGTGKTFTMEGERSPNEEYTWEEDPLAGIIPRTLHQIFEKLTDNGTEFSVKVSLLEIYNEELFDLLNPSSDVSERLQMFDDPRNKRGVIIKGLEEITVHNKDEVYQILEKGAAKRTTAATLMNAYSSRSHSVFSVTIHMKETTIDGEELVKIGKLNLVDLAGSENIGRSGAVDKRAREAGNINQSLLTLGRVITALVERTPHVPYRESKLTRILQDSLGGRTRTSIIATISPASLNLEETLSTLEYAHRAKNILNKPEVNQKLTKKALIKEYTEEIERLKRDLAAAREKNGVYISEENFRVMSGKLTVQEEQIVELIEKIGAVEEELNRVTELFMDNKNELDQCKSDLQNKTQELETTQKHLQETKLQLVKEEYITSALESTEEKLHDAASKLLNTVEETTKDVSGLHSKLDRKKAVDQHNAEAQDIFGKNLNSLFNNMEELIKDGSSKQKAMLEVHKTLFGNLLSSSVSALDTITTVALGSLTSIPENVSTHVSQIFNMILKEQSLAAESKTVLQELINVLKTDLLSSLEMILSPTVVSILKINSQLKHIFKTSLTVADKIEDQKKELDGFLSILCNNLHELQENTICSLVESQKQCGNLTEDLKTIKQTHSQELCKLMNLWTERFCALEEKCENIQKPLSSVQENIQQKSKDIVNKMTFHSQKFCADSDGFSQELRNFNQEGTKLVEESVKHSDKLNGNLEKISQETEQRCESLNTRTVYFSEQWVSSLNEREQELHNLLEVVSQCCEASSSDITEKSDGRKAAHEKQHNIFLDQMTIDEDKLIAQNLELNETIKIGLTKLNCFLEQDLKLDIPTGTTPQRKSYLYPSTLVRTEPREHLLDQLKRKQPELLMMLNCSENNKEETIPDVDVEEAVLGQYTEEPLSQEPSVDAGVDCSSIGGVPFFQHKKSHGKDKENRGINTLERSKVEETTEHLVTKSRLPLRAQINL

## COc1cc(=O)oc(C)c1C(=O)CC(C)O (centres undefined)
HeLa [1]
  IC50: 22300 nM

## C#CCOCC/C=C/C(=O)c1c(OC)cc(=O)oc1C
HeLa [1]
  IC50: 2300 nM
HeLa [2]
  Activity: Active

## C/C=C/Cc1c(O)cc(=O)oc1C
HeLa [1]
  IC50: > 100000 nM

## CCCC(=O)c1c(OC)cc(=O)oc1C
HeLa [1]
  IC50: > 100000 nM

## COc1cccc2c1C(=O)c1c(O)c3c(c(O)c1C2=O)C[C@@](O)(C(=O)CO)C[C@@H]3O[C@H]1C[C@H](N)[C@H](O)[C@H](C)O1 [DOXORUBICIN]
Huh-7
  IC50: 220 nM
HeLa [1]
  IC50: 400 nM
A549
  IC50: 240 nM
HCT-116
  IC50: 250 nM

## N[C@@H](CSC(c1ccccc1)(c1ccccc1)c1ccccc1)C(=O)O
HeLa [3]
  Activity: Active

## C/C=C/C(=O)c1c(OC)cc(=O)oc1C
Huh-7
  IC50: 8600 nM
HeLa [1]
  IC50: 9300 nM
A549
  IC50: 12900 nM
HCT-116
  IC50: 2600 nM
HeLa [4]
  Activity: 0 to 6%
HeLa [5]
  Activity: inactive
HeLa [6]
  Activity: inactive
HeLa [7]
  Activity: Active
HeLa [2]
  Activity: Dose-dependent effect
HeLa [8]
  Activity: 2%
HeLa [9]
  Activity: 7%
HeLa [10]
  Activity: 14%
HeLa [11]
  Activity: Active
[12]
  Activity: inactive
